# Molecular target: T1, human Edg 1 receptor (Homo sapiens, UniProt P21453)
# T1 construct: FLAG (N); expressed in transfected cells; membrane preparation
# Assay: GTP-γ-S assay using human Edg 1 receptors (scintillation proximity assay, CHO Flp-In membrane preparation)
# Assay type: biochemical
# Conditions: test compound at 10 μM; [35S]GTP-γ-S binding; membranes of CHO Flp-In cells overexpressing human Edg 1
# Text: A) GTP-γ-S assay using human Edg 1 receptors
# In order to determine the Edg 1 receptor activation by the compounds of the invention, a GTP-γ-S ((GTP-γ-S=guanosine 5′-[thio]triphosphate) assay for G-protein coupled receptor binding based on the scintillation proximity assay principle was used, employing a cell membrane preparation from a CHO Flp-In cell line which constitutively overexpresses the human Edg 1 receptor.
# A membrane preparation was obtained by standard methods from the afore-described CHO Flp-In cell line constitutively overexpressing the human Edg 1 receptor. Briefly, the cryopreserved cells were taken in culture and grown until confluency in T175 cell culture flasks (Becton Dickinson, cat. no. 35 5001). […] Protein concentration of the membrane preparation was determined in a sample by means of a commercial protein assay (Bio-Rad, DC Protein Assay, cat. nos. 500-0113, 500-0114, 500-0115).
# The Edg 1 membrane preparation obtained in (b) was employed in a commercially available scintillation proximity assay (SPA) kit for G-protein coupled receptor binding from Amersham Biosciences/GE Healthcare (code RPNQ0210), in which ligand-induced binding of ^35S-radiolabeled GTP-γ-S to the receptor-containing membrane, which is bound to scintillation beads, stimulates the emission of light and allows to quantify the in vitro activity of the Edg 1 agonistic compound. […]
# T1 sequence (P21453 whole entry): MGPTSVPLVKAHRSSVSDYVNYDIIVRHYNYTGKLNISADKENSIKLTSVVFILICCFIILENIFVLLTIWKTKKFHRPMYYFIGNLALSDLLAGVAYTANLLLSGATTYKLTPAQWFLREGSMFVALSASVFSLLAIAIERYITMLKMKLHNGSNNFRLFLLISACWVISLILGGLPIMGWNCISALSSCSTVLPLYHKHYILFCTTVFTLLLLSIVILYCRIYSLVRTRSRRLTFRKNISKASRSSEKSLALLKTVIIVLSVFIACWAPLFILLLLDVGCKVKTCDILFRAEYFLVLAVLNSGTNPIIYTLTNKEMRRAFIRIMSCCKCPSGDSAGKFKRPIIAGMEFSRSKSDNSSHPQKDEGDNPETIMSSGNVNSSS
smiles,measurement,value
"Cc1cc(-c2nc3cnc(Oc4ccccc4F)cc3o2)cc(C)c1OCC(=O)O [Example 1, {4-[6-(2-Fluorophenoxy)oxazolo[4,5-c]pyridin-2-yl]-2,6-dimethylphenoxy}acetic acid]","receptor activation in percent of the respective high control (10 μM S1P, regarded as 100% activation)",86%

# Reference: patent US8907093B2, “Carboxylic acid derivatives having an oxazolo[4,5-c]pyridine ring” (Sanofi, priority 2011, dated 2014)
